In PubChem BioAssay AID1963868 (Molecular Pharmacology Branch, DTP, NCI, 2024):

Tested on: KRAS PDC tumor spheroids (HUVEC+MSC), viability
Test: Anticancer human tumor 254851-301-R-J1-PDC patient-derived colon carcinoma cell line growth inhibition [KRAS2]
Conditions: for IC50: curve of first compound; for viability, T/C: stronger effect = lower value; active means viability on the fitted dose curve at most 10% of control; inactive means the rest
In short: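 Combination screen of spheroid viability in tumor-cell co-cultures with endothelial (HUVEC) and mesenchymal stem cell stroma. Each agent was tested in half-log dilutions, topping at clinical Cmax or at 10 microM without a known Cmax.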

[1] = second compound 0.1 µM, first compound 0.0316 µM
[2] = second compound 0.1 µM, first compound 0.1 µM
[3] = second compound 0.1 µM, first compound 0.316 µM
[4] = second compound 0.1 µM, first compound 1 µM
[5] = second compound 0.1 µM, first compound 3.16 µM
[6] = second compound 0.1 µM, first compound 10 µM
[7] = second compound 0.316 µM, first compound 0.0316 µM
[8] = second compound 0.316 µM, first compound 0.1 µM
[9] = second compound 0.316 µM, first compound 0.316 µM
[10] = second compound 0.316 µM, first compound 1 µM
[11] = second compound 0.316 µM, first compound 3.16 µM
[12] = second compound 0.316 µM, first compound 10 µM
[13] = second compound 1 µM, first compound 0.0316 µM
[14] = second compound 1 µM, first compound 0.1 µM
[15] = second compound 1 µM, first compound 0.316 µM
[16] = second compound 1 µM, first compound 1 µM
[17] = second compound 1 µM, first compound 3.16 µM
[18] = second compound 1 µM, first compound 10 µM
[19] = second compound 3.16 µM, first compound 0.0316 µM
[20] = second compound 3.16 µM, first compound 0.1 µM
[21] = second compound 3.16 µM, first compound 0.316 µM
[22] = second compound 3.16 µM, first compound 1 µM
[23] = second compound 3.16 µM, first compound 3.16 µM
[24] = second compound 3.16 µM, first compound 10 µM
[25] = second compound 10 µM, first compound 0.0316 µM
[26] = second compound 10 µM, first compound 0.1 µM
[27] = second compound 10 µM, first compound 0.316 µM
[28] = second compound 10 µM, first compound 1 µM
[29] = second compound 10 µM, first compound 3.16 µM
[30] = second compound 10 µM, first compound 10 µM
[31] = second compound 0.1 µM, first compound 0.01 µM
[32] = second compound 0.316 µM, first compound 0.01 µM
[33] = second compound 1 µM, first compound 0.01 µM
[34] = second compound 3.16 µM, first compound 0.01 µM
[35] = second compound 10 µM, first compound 0.01 µM
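Further: spheroids exposed to compounds for seven days before readout.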
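Wherever viability, T/C is given: 100% = DMSO vehicle control luminescence of the spheroids.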

CC(C)NCC(C(=O)N1CCN(c2ncnc3c2C(C)CC3O)CC1)c1ccc(Cl)cc1 (stereo not given) + CC1OCC2(CCN(c3cnc(Sc4ccnc(N)c4Cl)c(N)n3)CC2)C1N
inactive: viability, T/C [1] 104% | viability, T/C [2] 97.1% | viability, T/C [3] 103% | viability, T/C [4] 93.2% | viability, T/C [5] 102% | viability, T/C [6] 85.3% | viability, T/C [7] 93% | viability, T/C [8] 86.6% | viability, T/C [9] 75.4% | viability, T/C [10] 79.6% | viability, T/C [11] 79.5% | viability, T/C [12] 88.4% | viability, T/C [13] 72.4% | viability, T/C [14] 72.4% | viability, T/C [15] 83.1% | viability, T/C [16] 75.6% | viability, T/C [17] 69.6% | viability, T/C [18] 68.5% | viability, T/C [19] 58.4% | viability, T/C [20] 68.9% | viability, T/C [21] 64.9% | viability, T/C [22] 66.4% | viability, T/C [23] 67.4% | viability, T/C [24] 70.8% | viability, T/C [25] 58.6% | viability, T/C [26] 64.5% | viability, T/C [27] 65.7% | viability, T/C [28] 60.9% | viability, T/C [29] 55.9% | viability, T/C [30] 58.4%
> 10000 nM: IC50 (second compound 0.1 µM) | IC50 (second compound 0.316 µM) | IC50 (second compound 1 µM) | IC50 (second compound 3.16 µM) | IC50 (second compound 10 µM)

CC1COCCN1c1cc(-c2ccnn2C)c2ccnc(-c3ccn[nH]3)c2n1 (stereo not given) + CC1OCC2(CCN(c3cnc(Sc4ccnc(N)c4Cl)c(N)n3)CC2)C1N
165 nM: IC50 (second compound 3.16 µM)
315 nM: IC50 (second compound 1 µM)
303 nM: IC50 (second compound 0.1 µM)
inactive: viability, T/C [31] 114% | viability, T/C [1] 107% | viability, T/C [2] 75.5% | viability, T/C [3] 48.6% | viability, T/C [4] 36.4% | viability, T/C [5] 24.5% | viability, T/C [32] 90.5% | viability, T/C [7] 101% | viability, T/C [8] 83.5% | viability, T/C [9] 49.8% | viability, T/C [10] 33% | viability, T/C [11] 24.4% | viability, T/C [33] 88.7% | viability, T/C [13] 89.8% | viability, T/C [14] 79% | viability, T/C [15] 47.1% | viability, T/C [16] 34.6% | viability, T/C [17] 21.2% | viability, T/C [34] 69.2% | viability, T/C [19] 74.8% | viability, T/C [20] 57% | viability, T/C [21] 39.2% | viability, T/C [22] 23.1% | viability, T/C [23] 21.9% | viability, T/C [35] 67.1% | viability, T/C [25] 65.8% | viability, T/C [26] 58.3% | viability, T/C [27] 35.8% | viability, T/C [28] 27.2% | viability, T/C [29] 20%
152 nM: IC50 (second compound 10 µM)
323 nM: IC50 (second compound 0.316 µM)

CCN1CCN(Cc2ccc(Nc3ncc(F)c(-c4cc(F)c5nc(C)n(C(C)C)c5c4)n3)nc2)CC1 + CC1OCC2(CCN(c3cnc(Sc4ccnc(N)c4Cl)c(N)n3)CC2)C1N
336 nM: IC50 (second compound 1 µM)
483 nM: IC50 (second compound 0.316 µM)
526 nM: IC50 (second compound 0.1 µM)
48.2 nM: IC50 (second compound 3.16 µM)
100 nM: IC50 (second compound 10 µM)
inactive: viability, T/C (second compound 0.1 µM, first compound 0.00316 µM) 94.5% | viability, T/C [31] 92.5% | viability, T/C [1] 99.2% | viability, T/C [2] 92.4% | viability, T/C [3] 61.7% | viability, T/C [4] 35.3% | viability, T/C (second compound 0.316 µM, first compound 0.00316 µM) 93.9% | viability, T/C [32] 91.2% | viability, T/C [7] 87.5% | viability, T/C [8] 75.5% | viability, T/C [9] 62.6% | viability, T/C [10] 30.6% | viability, T/C (second compound 1 µM, first compound 0.00316 µM) 82.7% | viability, T/C [33] 94.3% | viability, T/C [13] 81.2% | viability, T/C [14] 69.2% | viability, T/C [15] 52.5% | viability, T/C [16] 28.8% | viability, T/C (second compound 3.16 µM, first compound 0.00316 µM) 54.2% | viability, T/C [34] 49.7% | viability, T/C [19] 56.6% | viability, T/C [20] 44% | viability, T/C [21] 28.6% | viability, T/C [22] 26.8% | viability, T/C (second compound 10 µM, first compound 0.00316 µM) 62.5% | viability, T/C [35] 65.8% | viability, T/C [25] 54.8% | viability, T/C [26] 51.3% | viability, T/C [27] 35.5% | viability, T/C [28] 13.5%

CCNC(=O)CC1N=C(c2ccc(Cl)cc2)c2cc(OC)ccc2-n2c(C)nnc21 (stereo not given) + CC1OCC2(CCN(c3cnc(Sc4ccnc(N)c4Cl)c(N)n3)CC2)C1N
5860 nM: IC50 (second compound 3.16 µM)
inactive: viability, T/C [1] 111% | viability, T/C [2] 103% | viability, T/C [3] 99.9% | viability, T/C [4] 95.6% | viability, T/C [5] 94.9% | viability, T/C [6] 77.2% | viability, T/C [7] 94.2% | viability, T/C [8] 108% | viability, T/C [9] 81.9% | viability, T/C [10] 89.5% | viability, T/C [11] 77.8% | viability, T/C [12] 68.5% | viability, T/C [13] 84.8% | viability, T/C [14] 83.3% | viability, T/C [15] 93.1% | viability, T/C [16] 73.9% | viability, T/C [17] 86.1% | viability, T/C [18] 65.6% | viability, T/C [19] 73% | viability, T/C [20] 69.3% | viability, T/C [21] 73% | viability, T/C [22] 67% | viability, T/C [23] 58.9% | viability, T/C [24] 42% | viability, T/C [25] 70.5% | viability, T/C [26] 67.4% | viability, T/C [27] 57.8% | viability, T/C [28] 56.5% | viability, T/C [29] 56.5% | viability, T/C [30] 50.5%
> 10000 nM: IC50 (second compound 0.1 µM) | IC50 (second compound 0.316 µM) | IC50 (second compound 1 µM) | IC50 (second compound 10 µM)

Cn1nccc1Nc1nccc(-c2cc3c(s2)C(C)(C)N(CCN2CCOCC2)C3=O)n1 + CC1OCC2(CCN(c3cnc(Sc4ccnc(N)c4Cl)c(N)n3)CC2)C1N
1290 nM: IC50 (second compound 1 µM)
1810 nM: IC50 (second compound 0.316 µM)
active: viability, T/C [5] 8.68% | viability, T/C [6] 4.09% | viability, T/C [12] 4.06% | viability, T/C [18] 3.68% | viability, T/C [22] 4.42% | viability, T/C [23] 2.57% | viability, T/C [24] 1.97% | viability, T/C [29] 3.18% | viability, T/C [30] 2.52%
1720 nM: IC50 (second compound 0.1 µM)
422 nM: IC50 (second compound 10 µM)
469 nM: IC50 (second compound 3.16 µM)
inactive: viability, T/C [1] 97.6% | viability, T/C [2] 98.1% | viability, T/C [3] 100% | viability, T/C [4] 86.9% | viability, T/C [7] 83.8% | viability, T/C [8] 86.8% | viability, T/C [9] 85.3% | viability, T/C [10] 69.8% | viability, T/C [11] 31.1% | viability, T/C [13] 77.4% | viability, T/C [14] 83.7% | viability, T/C [15] 81.8% | viability, T/C [16] 61.1% | viability, T/C [17] 11.1% | viability, T/C [19] 68% | viability, T/C [20] 77.5% | viability, T/C [21] 75.8% | viability, T/C [25] 64% | viability, T/C [26] 79.5% | viability, T/C [27] 63% | viability, T/C [28] 10.3%
